Measurements as given in patent publication US12643877B2, “Substituted tetrahydroisoquinoiline derivative as a D1 positive allosteric modulator” (UCB Biopharma SRL, priority 2019, dated 2026).
Where “and” joins values, the source holds several entries; their conditions need not be identical. Identical values can stand only once.

Tests used:
dopamine D1 receptor [1] = molecular target: T1, dopamine D1 receptor (Homo sapiens, UniProt P21728); experiment: cAMP HTRF activation assay (absence of dopamine); type: cell-based; conditions: L-M(TK-), 10 μM compound, LMtk cells expressing D1, read-out: % of activation (compared to dopamine maximal response)
T1 construct: host or cells: LMtk (Ltk-) mouse fibroblast cells
From the text: (§1) Assays have been designed to measure the effects of compounds in accordance with the present invention in the absence of dopamine (“activation assay”) and in the presence of dopamine (“potentiation assay”).
The activation assay measures the stimulation of the production of cyclic adenosinemonophosphate (cAMP) in the Homogeneous Time Resolved Fluorescent (HTRF) assay, with the maximum increase in cAMP by increasing concentrations of the endogenous agonist, dopamine, defined as 100% activation.
(§2) Cells were cultured at 37° C. in a humidified atmosphere of 5% CO2. […]
The measurement of changes in intracellular cyclic adenosinemonophopshpate (cAMP) was determined using the HTRF cAMP dynamic assay kit from CisBio (Codolet, France). […] The tracer binding is determined by an anti-cAMP antibody labeled with cryptate. The effects of the compound alone (agonism) was determined by performing the assay in the absence of dopamine, whilst the effect of the compound as a positive allosteric modulator (PAM) was determined in the presence of an EC20 concentration of dopamine. […] This is then incubated for a further 60 min at room temperature and changes in HTRF fluorescent emission ratio determined according to manufacturer's instructions using an Envision plate reader (Perkin Elmer, Zaventem, Belgium) with laser excitation. […]

dopamine D1 receptor [2] = molecular target: T1, dopamine D1 receptor; experiment: cAMP HTRF potentiation assay (presence of EC20 dopamine); type: cell-based
From the text: as §1
The potentiation assay measures the ability of compounds to increase the levels of cAMP produced by a low-threshold concentration of dopamine. The concentration of dopamine used ([EC20]) is designed to produce 20% stimulation compared to the maximal response (100%) seen with increasing the concentration of dopamine. To measure this potentiation increasing concentrations of the compound with the [EC20] of dopamine are incubated and the potentiation is measured as increases in cAMP production and concentration of compound which produces 50% of the potentiation of the cAMP levels is measured.
as §2
The measurement of changes in intracellular cyclic adenosinemonophopshpate (cAMP) was determined using the HTRF cAMP dynamic assay kit from CisBio (Codolet, France). […] The tracer binding is determined by an anti-cAMP antibody labeled with cryptate. The effects of the compound alone (agonism) was determined by performing the assay in the absence of dopamine, whilst the effect of the compound as a positive allosteric modulator (PAM) was determined in the presence of an EC20 concentration of dopamine. […]

[3] = molecular target: T2, human GABAA receptor α1,β2 and γ2 subunits (Homo sapiens, UniProt P14867+P18507+P47870); experiment: Automated patch clamp studies on GABAA receptor cells; type: cell-based; conditions: 10 μM compound; GABA 15 μM; CHO-K1 cells; read-out: percentage of inhibition of the GABAA receptor
T2 construct: expressed in transfected cells; host or cells: CHO-K1 cells
Protocol: CHO-K1 cells stably expressing human GABAA receptor α1,β2 and γ2 subunits were used. The cells were harvested using trypsin and maintained in serum-free medium at room temperature. The cells were washed and re-suspended in extracellular solution before testing.
Experiments on human GABAA (α1β2γ2) channels were conducted using an automated patch clamp assay (IonFlux™ HT). Compounds were tested at 3 concentrations (0.1, 1, and 10 μM) in 3 to 4 cells. The external solution for recording GABAA currents was composed of sodium chloride 137 mM, potassium chloride 4 mM, calcium chloride 1.8 mM, magnesium chloride 1 mM, HEPES 10 mM, and glucose 10 mM. Both external and internal solutions were titrated with NaOH or KOH to obtain a pH of 7.35 or 7.3, respectively. The internal pipette solution contained potassium fluoride 70 mM, potassium chloride 60 mM, sodium chloride 70 mM, HEPES 5 mM, EGTA 5 mM, and Magnesium ATP 4 mM. The final concentration of vehicle used to dilute compounds was 0.33% DMSO in each well. Bicuculline (0.032 to 100 μM) was used as positive control inhibitor. GABA (15 μM) was used as agonist. […]
The compound addition sequence was the following: one addition of the EC80 concentration of GABA was added to establish baseline response. […] Peak inward currents in response to the GABA additions in the presence of a single concentration of compound were measured. […]

CYP3A4 = CYP3A4 induction assay in cryopreserved human hepatocytes; type: in vitro ADME
Protocol: The objective of the human hepatocyte assay is to characterize the induction potential of Compound of formula (I) by measuring the CYP3A4 activities after 3-days of hepatocytes treatment with culture medium alone or culture medium containing increasing concentration of NCE.
To this aim, cryopreserved human hepatocytes from a single donor are seeded on a 48 well collagen coated plate so that the final seeding density is 0.2×10^6 cells/well (final volume per well 0.25 mL). The cells are then incubated in seeding medium at 37° C., 95% humidity, 5% CO2 to allow the cells to attach. […]
For catalytic activity determination, solution of the CYP3A4 probe substrate, midazolam (final concentration 2.5 μM) is prepared in pre warmed assay medium. […] An aliquot of supernatant is diluted with deionised water and levels of 1-hydroxymidazolam is quantified using generic LC MS/MS methods.
The hepatocytes are solubilised in 0.1M sodium hydroxide at room temperature and protein content in each well determined using Pierce™ BCA Protein Assay Kit (Thermo Scientific) using bovine serum albumin as a standard.
The fold-induction (increase in CYP activity) is obtained by taking the ratio of the measured enzymatic activity obtained in hepatocytes treated with Compound of formula (I), over the one obtained in control hepatocytes treated with vehicle. […]

T1 sequence (P21728 whole entry): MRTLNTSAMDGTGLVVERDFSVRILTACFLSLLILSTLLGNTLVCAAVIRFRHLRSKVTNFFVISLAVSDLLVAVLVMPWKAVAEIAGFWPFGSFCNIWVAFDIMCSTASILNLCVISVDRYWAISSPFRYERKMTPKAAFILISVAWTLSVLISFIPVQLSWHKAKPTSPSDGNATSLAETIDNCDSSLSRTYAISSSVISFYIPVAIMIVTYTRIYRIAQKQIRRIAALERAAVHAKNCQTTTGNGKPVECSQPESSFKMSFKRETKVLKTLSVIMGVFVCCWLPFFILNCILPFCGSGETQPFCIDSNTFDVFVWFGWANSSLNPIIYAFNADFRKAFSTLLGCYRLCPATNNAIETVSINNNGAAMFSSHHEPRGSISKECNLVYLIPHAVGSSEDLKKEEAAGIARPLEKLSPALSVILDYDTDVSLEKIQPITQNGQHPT
T2 sequence (P14867 28-456): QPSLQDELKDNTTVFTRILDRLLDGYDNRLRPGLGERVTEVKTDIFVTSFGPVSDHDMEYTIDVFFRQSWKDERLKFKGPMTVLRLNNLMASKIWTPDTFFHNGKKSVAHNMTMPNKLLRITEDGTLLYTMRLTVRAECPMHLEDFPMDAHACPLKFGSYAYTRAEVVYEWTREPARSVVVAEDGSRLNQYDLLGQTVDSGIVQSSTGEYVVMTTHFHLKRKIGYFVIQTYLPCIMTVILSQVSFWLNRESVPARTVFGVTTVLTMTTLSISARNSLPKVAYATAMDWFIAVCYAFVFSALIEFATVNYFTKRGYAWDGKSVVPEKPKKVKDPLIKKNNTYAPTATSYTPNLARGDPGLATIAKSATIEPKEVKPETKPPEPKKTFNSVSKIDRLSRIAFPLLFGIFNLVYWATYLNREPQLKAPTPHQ
T2 sequence (P47870 25-512 limits assumed): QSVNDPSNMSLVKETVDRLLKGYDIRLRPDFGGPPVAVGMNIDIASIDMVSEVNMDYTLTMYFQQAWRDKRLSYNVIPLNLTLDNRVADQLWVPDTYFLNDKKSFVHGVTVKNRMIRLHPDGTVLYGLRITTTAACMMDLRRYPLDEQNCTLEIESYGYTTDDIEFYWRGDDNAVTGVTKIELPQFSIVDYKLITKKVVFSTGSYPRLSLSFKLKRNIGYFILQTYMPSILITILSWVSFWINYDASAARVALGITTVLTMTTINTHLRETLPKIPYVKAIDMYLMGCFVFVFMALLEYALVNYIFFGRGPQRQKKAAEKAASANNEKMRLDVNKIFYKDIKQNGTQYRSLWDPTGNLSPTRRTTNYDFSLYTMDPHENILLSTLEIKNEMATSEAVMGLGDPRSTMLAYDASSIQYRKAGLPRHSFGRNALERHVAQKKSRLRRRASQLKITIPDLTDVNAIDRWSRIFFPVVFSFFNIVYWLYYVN
T2 sequence (P18507 40-475): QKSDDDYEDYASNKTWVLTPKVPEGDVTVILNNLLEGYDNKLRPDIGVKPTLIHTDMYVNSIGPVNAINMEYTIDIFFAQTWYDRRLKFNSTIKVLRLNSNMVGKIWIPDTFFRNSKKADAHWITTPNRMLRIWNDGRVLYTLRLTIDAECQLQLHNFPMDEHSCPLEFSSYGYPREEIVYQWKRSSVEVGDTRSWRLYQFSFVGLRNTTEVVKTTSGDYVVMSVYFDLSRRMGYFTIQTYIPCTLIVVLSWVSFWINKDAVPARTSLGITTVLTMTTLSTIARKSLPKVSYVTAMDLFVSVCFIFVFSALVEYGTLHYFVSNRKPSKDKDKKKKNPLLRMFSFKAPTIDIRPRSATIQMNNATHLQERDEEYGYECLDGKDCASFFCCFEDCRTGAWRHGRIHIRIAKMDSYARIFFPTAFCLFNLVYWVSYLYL

Emax at 10 µM (dopamine D1 receptor [1]): < 20%
Erel (relative efficacy) (dopamine D1 receptor [2]; maximal potentiation relative to dopamine maximum response (100%)): about 68%
EC50 (dopamine D1 receptor [2]; potentiation of cAMP in presence of EC20 dopamine (1.1 nM), LMtk cells expressing D1): ~7.94 nM and < 316 nM
inhibition at 10 µM [3]: < 0.1%
fold-induction value, times lower than positive control (Rifampicin) (CYP3A4; compound 1 μM vs Rifampicin 10 μM, 72 h, CYP3A4 activity (midazolam)): at least 7 times lower
induction potential, times lower than positive control (Rifampicin) (CYP3A4; highest fold-induction: compound at highest soluble concentration 3 μM vs Rifampicin 10 μM): about 4 times lower
SMILES: C[C@H]1c2cccc(C(C)(C)O)c2C[C@H](CO)N1C(=O)Cc1c(Cl)ccc2c1c(Cl)nn2C [compound of formula (I), 2-(3,5-dichloro-1-methyl-indazol-4-yl)-1-[(1S,3R)-3-(hydroxymethyl)-5-(1-hydroxy-1-methyl-ethyl)-1-methyl-3,4-dihydro-1H-isoquinolin-2-yl]ethanone]
